In US20260015337A1 (Trawsfynydd Therapeutics, Inc., priority 2022, published 2026):

Molecular target: 3CL Protease (Severe acute respiratory syndrome coronavirus 2, UniProt P0DTD1)
Assay: 3CL Protease enzymatic activity assay (BPS Bioscience Assay Kit #78043-1, fluorescence)
Type: biochemical, SARS-CoV-2
Conditions: Table A; 30 min preincubation, 40 μM substrate, 4 hours at room temperature; read-out: IC50, nM (3CL Protease enzymatic activity)
Method in brief: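 SARS-CoV-2 3CL protease was preincubated with compound 30 min at room temperature in assay buffer with 1 mM DTT (≤1% DMSO), then 40 μM substrate added for 4 h at room temperature. Fluorescence at 360/460 nm, blank-subtracted; IC50 from % inhibition, with GC376 as inhibitor control.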

| Structure (SMILES) | IC50 |
| --- | --- |
| Cc1ccc2[nH]c(=O)c(C[C@@H](C#N)NC(=O)C3C[C@H]4OCC[C@H]4N3C(=O)[C@@H](NC(=O)OCc3ccccc3)C(C)(C)C)cc2c1 (stereo partly drawn) [Compound 197, Benzyl ((2S)-1-((3aR,6aR)-5-(((S)-1-cyano-2-(6-methyl-2-oxo-1,2-dihydroquinolin-3-yl)ethyl)carbamoyl)hexahydro-4H-furo[3,2-b]pyrrol-4-yl)-3,3-dimethyl-1-oxobutan-2-yl)carbamate] | ≥ 1000 nM |
| Cc1ccc2[nH]c(=O)c(C[C@@H](C#N)NC(=O)C3C[C@H]4OCC[C@H]4N3C(=O)[C@@H](NC(=O)C(F)(F)F)C(C)(C)C)cc2c1 (stereo partly drawn) [Compound 198, (3aR,6aR)—N—((S)-1-Cyano-2-(6-methyl-2-oxo-1,2-dihydroquinolin-3-yl)ethyl)-4-((S)-3,3-dimethyl-2-(2,2,2-trifluoroacetamido)butanoyl)hexahydro-2H-furo[3,2-b]pyrrole-5-carboxamide] | ≥ 1000 nM |
| Cc1ccc2c(c1)CC(CC(C#N)NC(=O)[C@@H]1[C@@H]3[C@H](CN1C(=O)[C@@H](NC(=O)C(F)(F)F)C(C)(C)C)C3(C)C)C(=O)N2 (stereo partly drawn) [Compound 199, (1R,2S,5S)—N-[1-Cyano-2-(6-methyl-2-oxo-3,4-dihydro-1H-quinolin-3-yl)ethyl]-3-[(2S)-3,3-dimethyl-2-[(2,2,2-trifluoroacetyl)amino]butanoyl]-6,6-dimethyl-3-azabicyclo[3.1.0]hexane-2-carboxamide] | < 50 nM |
| Cc1ccc2[nH]c(=O)c(CC(C#N)N(C)C(=O)[C@@H]3[C@H]4[C@H](CN3C(=O)[C@@H](NC(=O)C(F)(F)F)C(C)(C)C)C4(C)C)cc2c1 (stereo partly drawn) [Compound 205, (1S,2S,5S)-N-[1-cyano-2-(6-methyl-2-oxo-1H-quinolin-3-yl)ethyl]-3-[(2S)-3,3-dimethyl-2-[(2,2,2-trifluoroacetyl)amino]butanoyl]-N,6,6-trimethyl-3-azabicyclo[3.1.0]hexane-2-carboxamide] | ≥ 1000 nM |
| Cc1ccc2[nH]c(=O)c(C[C@@H](C#N)NC(=O)[C@H](Cc3ccccc3)N(C)C(=O)[C@@H](NC(=O)C(F)(F)F)C(C)(C)C)cc2c1 [Compound 206, (2S)—N-[(1S)-1-benzyl-2-[[(1S)-1-cyano-2-(6-methyl-2-oxo-1H-quinolin-3-yl)ethyl]amino]-2-oxo-ethyl]-N,3,3-trimethyl-2-[(2,2,2-trifluoroacetyl)amino]butanamide] | ≥ 1000 nM |

Same assay, conditions: Table B; comparison with known compound K; read-out: IC50, nM (3CL Protease enzymatic activity, comparative data)

| Structure (SMILES) | IC50 |
| --- | --- |
| CC(C)(C)[C@H](NC(=O)C(F)(F)F)C(=O)N1C[C@H]2[C@@H]([C@H]1C(=O)N[C@H](C#N)C[C@@H]1CCCNC1=O)C2(C)C [K, reference compound] | 1290 nM |
